Consider 90 compounds from a melting point compilation (Tetko et al.; mined from patent text by program, amines drawn as free bases though some values may be those of a salt).

On to `C=CCNC(=S)N1CCc2[nH]cnc2C1CC` (stereo not given), for which the melting point (in general, the temperature of the solid-liquid transition) came to 205 °C.
With `Cn1cc(CC(=O)O)c(OCc2cc(OCc3ccc4ccccc4n3)no2)n1`, the melting point lay in the range of 124 to 125 °C.
Regarding `CC(C)(C)OC(=O)N[C@@H](Cc1cc(F)cc(F)c1)[C@H](O)CCl`, the melting point is 149 °C.
For `COc1ccc(/C=C/S(=O)(=O)CS(=O)(=O)/C=C/c2ccc(OC)c(O)c2)cc1O`, the melting point lay in the range of 148 to 150 °C.
As for `Oc1cc2[nH]c3cc(O)c(O)cc3c2cc1O`, the melting point is greater than 300 °C.
As for `CC(=O)Oc1c(C)c(C=O)nc2ccccc12`, the figure is 132 to 133 °C; as for `C[C@H](CO)Nc1nc(SCc2cccc(F)c2F)nc2[nH]c(=O)cnc12`, 215 to 217 °C; as for `OC1(c2cccc(C(F)(F)F)c2)CCN(CCc2ccc3ncccc3c2)CC1`, 140 to 142 °C.
Next, `NC(=O)N1CC(Oc2cccc(C(F)(F)F)c2)C1`: 151 to 152 °C.
As for `O=C(Nc1ccc(CN2C(=O)C=C(CCO)Sc3ccccc32)cc1)c1ccccc1-c1ccccc1`, the figure is 116 to 120 °C; as for `Cn1ncc(SCc2ccccc2)c(Cl)c1=O`, 102 to 104 °C.
For the compound `Oc1ccc2[nH]cc(C3=CCN(Cc4ccccc4)CC3)c2c1`, the melting point is 223 to 227 °C.
For the compound `CC(C)(C)c1ccc(C2=NC[C@@H](OC(=O)Nc3ccccc3)[C@H](c3ccccc3)O2)cc1` (racemic), the melting point turned out to be 80 °C.
In the case of `O=C(C(Cl)Cl)N1CCC2(CC1)OCCO2`, the melting point amounted to 102 °C.
On to `CO/C=C(/C(=O)OC)c1ccccc1Oc1cccc(O)c1`, for which the melting point fell in the range of 117 to 118 °C.
For the compound `CCOC(=O)NNc1n[nH]c2cc(Cl)ccc12`, the melting point was in the range of 210 to 211 °C.
Take `COc1nc(Cc2ccccc2[N+](=O)[O-])nc(OC)n1`: the melting point lay within 91.6 to 92.3 °C.
`O=Cc1cc([N+](=O)[O-])ccc1OCCCc1ccccc1` came in with a melting point of 72 to 73 °C.
`COc1ccc(NC(=O)c2cc(N)ccc2NC(=O)c2ccc(C(C)(C)C)cc2)cc1`: the melting point was 212 to 214 °C.
For `O=C(Oc1ccc(Oc2ccccc2)cc1)N1CCC(CO)CC1`, the melting point was 71 to 74 °C.
`CC(C)C[C@H]1CN(Cc2ccccc2)C[C@@H]1C(=O)O` showed a melting point of 236 to 239 °C.
Next, `CC(C)(C)OC(=O)NC1CCCOCC=CC2CC2(C(=O)NS(=O)(=O)C2CC2)NC(=O)C2CC(OCc3ccccc3)CN2C1=O` (stereo not given): 147 to 149 °C; `CNCC(O)C1=CSC2C=CC=CC12` (stereo not given): 98 to 102 °C.
As for `CCOC(=O)C(=CNC(C)(C)C)C(=O)c1cc(F)c(F)c(F)c1F`, the figure is 112 °C; as for `Cc1cc(C(=O)NC(CCC(=O)OC(C)(C)C)C(=O)O)ccc1-c1c2cc(F)c(=O)cc-2oc2cc(O)c(F)cc12` (stereo not given), 134 to 138 °C; as for `COC(=O)Cc1ccccc1CC(=O)NCCc1ccc(OC)c(OC)c1`, 88 to 91 °C.
In the case of `CCOC(=O)N1C(NC(C)C)=NS(=O)(=O)c2c1cnn2C`, the melting point fell in the range of 141 to 145 °C.
In turn, `CCCCOC(=O)CSc1ncnc2c(O)n(C)nc12` had a melting point of 172 °C.
The compound `O=C(CBr)c1ccc(Cl)cc1OCc1ccccc1` displayed a melting point of 75 to 78 °C.
In turn, `CCCc1nn(C)c2c(=O)[nH]c(-c3cc(C(=O)CN4CCCCC4)ccc3OCC)nc12` showed a melting point of 149 to 151 °C.
Take `O=C(CCCCCN1CCN(c2cccc3c2CCC3)CC1)N1Cc2ccccc2C1`: the melting point was 112 °C.
The compound `NC(=O)N(O)CC=Cc1ccoc1` yielded a melting point of 136 to 137 °C.
As for `Cc1nc(-c2ccc(NC(=O)OCc3ccccc3)cc2)c[nH]c1=O`, the figure is 238 to 240 °C.
On to `O=C(O)CNC1Cc2ccccc2C1`, for which the melting point was in the range of 211 to 214 °C.
Take `CCCN(C)CCOc1ccc(-n2ccc(OCc3ccc(Cl)cn3)cc2=O)cc1`: the melting point is 119 to 123 °C.
As for `CCOC(=O)c1c[nH]c(=S)n1C1CCc2cc(F)cc(F)c2C1` (stereo not given), the melting point fell in the range of 187 to 189 °C.
Consider `CCCCNC(=O)Oc1ccc2c(c1)c(C)cn2NCCCc1ccncc1F`, for which the melting point was in the range of 83 to 84 °C.
Turning to `COc1ccc(-n2c(-c3sc(Nc4ccccc4)nc3-c3ccccc3)nc3ccccc3c2=O)cc1`, the melting point lay in the range of 135 to 137 °C.
`CC(=O)N1CCN(c2ccc(Nc3nccc(-c4sc(N(C)c5cccnc5)nc4C)n3)cc2)CC1` came in with a melting point of 205 to 206 °C.
In turn, `Cc1cc(O)cc(C)c1N` showed a melting point of 190 to 191 °C.
For `CCOC(=O)c1cn(-c2nonc2C)c2cc(F)c(F)c(C)c2c1=O`, the melting point was found to be 174 °C.
Turning to `Cc1nc(-n2ccc3c(OCc4ccccc4)cccc3c2=O)sc1C(=O)NCc1ccccc1`, the melting point lay within 225 to 226 °C.
The compound `CCCc1cc(N2CCC(NCC(O)c3nccc4ccccc34)CC2)nc2sc(C(N)=O)c(N)c12` (stereo not given) had a melting point of less than 150 °C.
As for `CC(C)Sc1c(C(=O)O)sc2cccc(Cl)c12`, the figure is 107 to 109 °C.
Next, `COc1cc(N2CCCC2)ncc1NC(=O)c1cc2cc(F)ccc2n1Cc1cccc(F)c1`: 196 to 198 °C; `C1=C(c2ccccc2)CCN(CCCCc2ccncc2)C1`: 89 to 90 °C.
Compound `COc1c(Br)cc(Br)cc1C1(C#N)CCCCC1` registered a melting point of 100 to 102 °C.
Turning to `O=C(CCCCCCn1ccc2ccc(NC(=O)OC3CCCC3)cc21)NS(=O)(=O)c1ccccc1`, the melting point was in the range of 74 to 76 °C.
Next, `CN(C)CCCCNC(=O)c1cnc2c(c1)N(Cc1cc(Cl)ccc1C(F)(F)F)CCN2`: 182 °C.
Turning to `Nc1sc2c(c1C(=O)c1ccccn1)CCCC2`, the melting point lay in the range of 191 to 193 °C.
In turn, `O=C(Cc1cccc(O)c1)NNC(=O)c1ccc(O)c([N+](=O)[O-])c1` displayed a melting point of 190 to 193 °C.
In the case of `COC(=O)c1nn(S(=O)(=O)c2ccc(C)cc2)c2ccccc12`, the melting point lay within 163 to 165 °C.
The compound `CC(C)COC(=O)Nc1cc(F)cc(F)c1` registered a melting point of 71 to 74 °C.
In turn, `C[C@H]1CCCC(C)(C)[C@@H]1[C@H](O)c1ccc(OC(F)(F)F)c(F)c1` came in with a melting point of 60.3 to 62.2 °C.
Turning to `COCc1cc2ccccc2oc1=Nc1ccccc1`, the melting point was 64 to 65 °C.
On to `C#CCN(c1cc(-c2ccnc3c(C(=O)c4cccs4)cnn23)ccc1F)S(C)(=O)=O`, for which the melting point was 149 to 153 °C.
`CN1CCN(c2cccc3c2CC(C(=O)Nc2ccc(N4CCOCC4)cc2)C3)CC1` (stereo not given) gave a melting point of 248 to 249 °C.
Consider `CSc1nc2ccnn2c2ncccc12`, for which the melting point is 192 °C.
On to `CCCCc1c2c(nc3cc(F)ccc13)-c1cc3c(c(=O)n1C2)COC(=O)CC3(O)CC` (stereo not given), for which the melting point lay within 235 to 236 °C.
The compound `C=CCNc1nc(NC(=O)NC(C)(C)C)c2cc([N+](=O)[O-])ccc2n1` yielded a melting point of 200 to 201 °C.
With `O=c1ccn(-c2cccc(C(F)(F)F)c2)nc1-c1ccoc1-c1ccccc1`, the melting point fell in the range of 159 to 163 °C.
As to `COc1ccc(-c2nc(C(=O)OC(C)(C)C)c(-c3ccncc3)[nH]2)cc1`, the melting point was 211 to 212 °C.
Next, `O=C(O)C1CC2CCCCC2CN1C(S)c1nn[nH]n1` (stereo not given): 165 to 172 °C.
The compound `CCOC(=O)C1=C(C)NC(N)=C(C(=O)OCC)C1c1ccccc1[N+](=O)[O-]` (stereo not given) showed a melting point of 159 °C.
Take `O=[N+]([O-])c1cc(S(=O)(=O)N2CCC(O)C2)sc1Cl` (racemic): the melting point was 96 °C.
The compound `O=Cc1ccc(-c2ccc(Cl)cc2)cc1` had a melting point of 108 to 112 °C.
`CCC/C(=C\C#N)c1ccc2c(c1)C(CC)(CC)OC(=O)N2` registered a melting point of 121 to 124 °C.
The compound `Cc1c(CCNC(=O)OC(C)(C)C)c2cc(S(=O)(=O)c3ccccc3)ccc2n1C` displayed a melting point of 151 to 155 °C.
`CC1(C(N)=O)CCC=[N+]1[O-]` (stereo not given) came in with a melting point of 134 to 135 °C.
Next, `CN(C)C(=O)CC1CN=C(c2cc3cccc(N(C)S(=O)(=O)c4cccs4)c3[nH]2)S1` (stereo not given): 153 to 154 °C.
In turn, `CC(C)(C)OC(=O)NCCCCNC(=O)Cc1ccc2ccccc2c1` had a melting point of 102 °C.
As for `CCCOc1ccc(-n2c(C(F)(F)F)nn(C)c2=S)cc1`, the figure is 68 to 70 °C.
Next, `CCOC(=O)N1CCN(C2=Nc3ccccc3Cc3nccn32)CC1`: 137 to 139 °C; `CS(=O)(=O)c1ccc(-c2ccccc2CO)cc1`: 123 to 124 °C; `Cc1cc(C)c(N)cc1N`: 170 to 172 °C.
For `CC(=NOCCCC(=O)O)c1ccc(Cl)cc1`, the melting point lay within 106 to 108 °C.
As for `Clc1cc2c(-c3ccccc3)coc2c2ccccc12`, the figure is 66 to 69 °C; as for `O=C(Nc1c[nH]nc1C(=O)NCCc1c[nH]c2ccccc12)c1ccccn1`, 250 to 251 °C; as for `CC(C)(C)OC(=O)Nc1cn(-c2cccnc2)nc1Br`, 109 to 112 °C.
With `COC(=O)COc1ccsc1-c1nsc2ccc(-n3c(=O)cc(C(F)(F)F)n(C)c3=O)cc12`, the melting point fell in the range of 73 to 79 °C.
In turn, `CC(O)=C(C#N)C(=O)Nc1ccc(OC(F)(F)F)cc1` registered a melting point of 171 to 176 °C.
`O=C1NC(=O)C(Cc2ccc(O)cc2)S1` (stereo not given): the melting point lay in the range of 151 to 152 °C.
In the case of `CCCCC1(N(C)C)CCC(c2[nH]c3ccc(F)cc3c2C)(c2[nH]c3ccccc3c2C(COC(N)=O)c2ccccc2)CC1` (stereo not given), the melting point is 101 to 105 °C.
Consider `CCOC(=O)C1=C(C)NC(=S)N(C(=O)OC(C)C)C1c1cccc([N+](=O)[O-])c1` (stereo not given), for which the melting point was in the range of 150 to 152 °C.
Next, `Cn1nc(-c2ncc(Cl)cc2F)cc1Br`: 110 to 111 °C.
As for `COc1ccc2c(c1)c(SC(C)C)c(C(N)=O)n2C`, the figure is 122 to 124 °C; as for `CCC(CC)CNC(=O)c1ccc(CN2C(=O)C3(COc4cc5c(cc43)CCO5)c3ccccc32)cc1` (stereo not given), 211 to 213 °C; as for `CCOC(=O)N[C@@H]1CCc2ccccc2[C@H]1Cl` (relative stereo), 124 to 126 °C.
Consider `CCOC(=O)c1c(C(F)(F)F)nc(C(F)(F)Cl)c(C(=O)OC)c1OCC`, for which the melting point was 37.5 to 39.5 °C.
Compound `N#Cc1cccc(CN2C(=O)C3(COc4cc5c(cc43)OCCO5)c3ccccc32)c1` (stereo not given) came in with a melting point of 94 to 96 °C.
